Measured values taken from patent publication US20240300932A1, “N-PHENYLIMINE DERIVATIVE AND PREPARATION METHOD AND USE THEREOF” (Guizhou University, priority 2023, published 2024).

Tests used:
Assay in all cases: Post-emergence herbicidal activity test (stem and leaf spray, pot culture)
Format in all cases: in vivo
Conditions in all cases: 3 weeks after spraying
Abutilon theophrasti = system: Abutilon theophrasti
Method in brief: (§1)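 Pot-grown weeds in loam (pH 7, 1.63% organic matter) were spray-treated on stems and leaves at the 2- to 3-leaf stage with compound in acetone/Tween 80 plus 1.5 liters/ha methyl oleate at 10, 5 or 2.5 g/mu. Fresh-weight growth control was scored 3 weeks later as grades 0–5.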

Amaranthus retroflexus = system: Amaranthus retroflexus
Method in brief: as §1

Echinochloa crusgalli = system: Echinochloa crusgalli
Method in brief: as §1

Portulaca oleracea = system: Portulaca oleracea
Method in brief: as §1

Setaria viridis = system: Setaria viridis
Method in brief: as §1

Trifoliumre pensL. = system: Trifoliumre pensL.
Method in brief: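 Rates of 10, 5 and 2.5 g/mu were applied in a single spray-tower treatment to 2–3-leaf plants, thinned to 10 per pot. Formulation: acetone solution, Tween 80, 1.5 L/ha methyl oleate synergist. Weed response assessed after 3 further greenhouse weeks; mean of three experiments.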

| Compound | Post-emergence herbicidal activity, A. theophrasti (grade) (Abutilon theophrasti; dosage 2.5 g/mu) | Post-emergence herbicidal activity, A. theophrasti (grade) (Abutilon theophrasti; dosage 5 g/mu) | Post-emergence herbicidal activity, A. theophrasti (grade) (Abutilon theophrasti; dosage 10 g/mu) | Post-emergence herbicidal activity, A. retroflexus (grade) (Amaranthus retroflexus; dosage 2.5 g/mu) | Post-emergence herbicidal activity, A. retroflexus (grade) (Amaranthus retroflexus; dosage 5 g/mu) | Post-emergence herbicidal activity, A. retroflexus (grade) (Amaranthus retroflexus; dosage 10 g/mu) | Post-emergence herbicidal activity, E. crusgalli (grade) (Echinochloa crusgalli; dosage 2.5 g/mu) | Post-emergence herbicidal activity, E. crusgalli (grade) (Echinochloa crusgalli; dosage 5 g/mu) | Post-emergence herbicidal activity, E. crusgalli (grade) (Echinochloa crusgalli; dosage 10 g/mu) | Post-emergence herbicidal activity, P. oleracea (grade) (Portulaca oleracea; dosage 2.5 g/mu) | Post-emergence herbicidal activity, P. oleracea (grade) (Portulaca oleracea; dosage 5 g/mu) | Post-emergence herbicidal activity, P. oleracea (grade) (Portulaca oleracea; dosage 10 g/mu) | Post-emergence herbicidal activity, S. viridis (grade) (Setaria viridis; dosage 2.5 g/mu) | Post-emergence herbicidal activity, S. viridis (grade) (Setaria viridis; dosage 5 g/mu) | Post-emergence herbicidal activity, S. viridis (grade) (Setaria viridis; dosage 10 g/mu) | Post-emergence herbicidal activity, Trifoliumre pensL. (grade) (Trifoliumre pensL.; dosage 2.5 g/mu) | Post-emergence herbicidal activity, Trifoliumre pensL. (grade) (Trifoliumre pensL.; dosage 5 g/mu) | Post-emergence herbicidal activity, Trifoliumre pensL. (grade) (Trifoliumre pensL.; dosage 10 g/mu) |
| --- | --- | --- | --- | --- | --- | --- | --- | --- | --- | --- | --- | --- | --- | --- | --- | --- | --- | --- |
| O=C1C2=C(CCCC2)C(=O)N1c1cc(OCc2nc(-c3cccc(Cl)c3)no2)c(Cl)cc1F [Compound A3] | 5 (Grade 5: the growth control rate is greater than or equal to 85%) | 5 (Grade 5: the growth control rate is greater than or equal to 85%) | 5 (Grade 5: the growth control rate is greater than or equal to 85%) | 5 (Grade 5: the growth control rate is greater than or equal to 85%) | 5 (Grade 5: the growth control rate is greater than or equal to 85%) | 5 (Grade 5: the growth control rate is greater than or equal to 85%) | 1 (Grade 1: the growth control rate is greater than or equal to 5% and less than 20%) | 2 (Grade 2: the growth control rate is greater than or equal to 20% and less than 40%) | 3 (Grade 3: the growth control rate is greater than or equal to 40% and less than 60%) | 4 (Grade 4: the growth control rate is greater than or equal to 60% and less than 85%) | 5 (Grade 5: the growth control rate is greater than or equal to 85%) | 5 (Grade 5: the growth control rate is greater than or equal to 85%) | 2 (Grade 2: the growth control rate is greater than or equal to 20% and less than 40%) | 3 (Grade 3: the growth control rate is greater than or equal to 40% and less than 60%) | 4 (Grade 4: the growth control rate is greater than or equal to 60% and less than 85%) | 4 (Grade 4: the growth control rate is greater than or equal to 60% and less than 85%) | 5 (Grade 5: the growth control rate is greater than or equal to 85%) | 5 (Grade 5: the growth control rate is greater than or equal to 85%) |
| O=C1C2=C(CCCC2)C(=O)N1c1cc(OCc2nc(-c3ccccc3F)no2)c(Cl)cc1F [Compound A12] | 5 (Grade 5: the growth control rate is greater than or equal to 85%) | 5 (Grade 5: the growth control rate is greater than or equal to 85%) | 5 (Grade 5: the growth control rate is greater than or equal to 85%) | 5 (Grade 5: the growth control rate is greater than or equal to 85%) | 5 (Grade 5: the growth control rate is greater than or equal to 85%) | 5 (Grade 5: the growth control rate is greater than or equal to 85%) | 1 (Grade 1: the growth control rate is greater than or equal to 5% and less than 20%) | 2 (Grade 2: the growth control rate is greater than or equal to 20% and less than 40%) | 3 (Grade 3: the growth control rate is greater than or equal to 40% and less than 60%) | 4 (Grade 4: the growth control rate is greater than or equal to 60% and less than 85%) | 5 (Grade 5: the growth control rate is greater than or equal to 85%) | 5 (Grade 5: the growth control rate is greater than or equal to 85%) | 2 (Grade 2: the growth control rate is greater than or equal to 20% and less than 40%) | 3 (Grade 3: the growth control rate is greater than or equal to 40% and less than 60%) | 4 (Grade 4: the growth control rate is greater than or equal to 60% and less than 85%) | 4 (Grade 4: the growth control rate is greater than or equal to 60% and less than 85%) | 5 (Grade 5: the growth control rate is greater than or equal to 85%) | 5 (Grade 5: the growth control rate is greater than or equal to 85%) |
| O=C1C2=C(CCCC2)C(=O)N1c1cc(OCc2nnc(-c3ccccc3F)o2)c(Cl)cc1F [Compound B1] | 5 (Grade 5: the growth control rate is greater than or equal to 85%) | 5 (Grade 5: the growth control rate is greater than or equal to 85%) | 5 (Grade 5: the growth control rate is greater than or equal to 85%) | 5 (Grade 5: the growth control rate is greater than or equal to 85%) | 5 (Grade 5: the growth control rate is greater than or equal to 85%) | 5 (Grade 5: the growth control rate is greater than or equal to 85%) | 1 (Grade 1: the growth control rate is greater than or equal to 5% and less than 20%) | 2 (Grade 2: the growth control rate is greater than or equal to 20% and less than 40%) | 3 (Grade 3: the growth control rate is greater than or equal to 40% and less than 60%) | 5 (Grade 5: the growth control rate is greater than or equal to 85%) | 5 (Grade 5: the growth control rate is greater than or equal to 85%) | 5 (Grade 5: the growth control rate is greater than or equal to 85%) | 2 (Grade 2: the growth control rate is greater than or equal to 20% and less than 40%) | 3 (Grade 3: the growth control rate is greater than or equal to 40% and less than 60%) | 4 (Grade 4: the growth control rate is greater than or equal to 60% and less than 85%) | 5 (Grade 5: the growth control rate is greater than or equal to 85%) | 5 (Grade 5: the growth control rate is greater than or equal to 85%) | 5 (Grade 5: the growth control rate is greater than or equal to 85%) |
| O=C1C2=C(CCCC2)C(=O)N1c1cc(OCc2nnc(-c3ccc(Br)cc3)o2)c(Cl)cc1F [Compound B16] | 5 (Grade 5: the growth control rate is greater than or equal to 85%) | 5 (Grade 5: the growth control rate is greater than or equal to 85%) | 5 (Grade 5: the growth control rate is greater than or equal to 85%) | 5 (Grade 5: the growth control rate is greater than or equal to 85%) | 5 (Grade 5: the growth control rate is greater than or equal to 85%) | 5 (Grade 5: the growth control rate is greater than or equal to 85%) | 1 (Grade 1: the growth control rate is greater than or equal to 5% and less than 20%) | 2 (Grade 2: the growth control rate is greater than or equal to 20% and less than 40%) | 3 (Grade 3: the growth control rate is greater than or equal to 40% and less than 60%) | 5 (Grade 5: the growth control rate is greater than or equal to 85%) | 5 (Grade 5: the growth control rate is greater than or equal to 85%) | 5 (Grade 5: the growth control rate is greater than or equal to 85%) | 2 (Grade 2: the growth control rate is greater than or equal to 20% and less than 40%) | 3 (Grade 3: the growth control rate is greater than or equal to 40% and less than 60%) | 4 (Grade 4: the growth control rate is greater than or equal to 60% and less than 85%) | 5 (Grade 5: the growth control rate is greater than or equal to 85%) | 5 (Grade 5: the growth control rate is greater than or equal to 85%) | 5 (Grade 5: the growth control rate is greater than or equal to 85%) |
